Patent publication US8637536B2, “Pyrimidinone compounds for use in the treatment of diseases or conditions mediated by Lp-PLA2” (Glaxo Group Limited, priority 2010, dated 2014)
Where two headings read alike, the source gives them in different places.

How the values were obtained:
[1] = biological target: T1, recombinant human Lp-PLA2 (Homo sapiens, UniProt Q13093); assay: Recombinant human Lp-PLA2 assay (rhLp-PLA2, PED6 assay); type: biochemical
T1 sequence (Q13093 22-441): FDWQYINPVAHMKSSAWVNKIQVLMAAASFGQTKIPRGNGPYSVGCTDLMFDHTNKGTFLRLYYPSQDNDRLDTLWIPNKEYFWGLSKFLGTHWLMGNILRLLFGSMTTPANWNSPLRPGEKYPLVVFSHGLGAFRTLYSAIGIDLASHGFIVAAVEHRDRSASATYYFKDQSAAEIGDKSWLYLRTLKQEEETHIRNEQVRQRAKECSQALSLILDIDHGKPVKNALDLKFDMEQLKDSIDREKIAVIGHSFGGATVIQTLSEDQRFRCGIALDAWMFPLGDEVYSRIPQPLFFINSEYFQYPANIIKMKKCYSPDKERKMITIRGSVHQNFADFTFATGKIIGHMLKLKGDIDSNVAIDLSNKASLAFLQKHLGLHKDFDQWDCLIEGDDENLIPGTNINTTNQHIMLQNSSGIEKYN
From the text: (1) Recombinant Human Lp-PLA2 Assay (rhLp-PLA2) (Also Referred to as “PED6” Assay)
N-((6-(2,4-dinitrophenyl)amino)-hexanoyl)-2-(4,4-difluoro-5,7-dimethyl-4-bora-3a,4a-diaza-s-indacene-3-pentanoyl)-1-hexadecanoyl-sn-glycero-3-phosphoethanolamine, triethylammonium salt (PED6) is a commercially available fluorescently-labelled phospholipid, which is commercially available from Molecular Probes. There is a quenching […] position and a Bodipy fluorescein (FL) group in the sn2 position.
The PED6 assay was run as an unquenched 10 μL assay. Compounds source plate was prepared by making 1:3 (by volume) serial dilution of the compounds into pure DMSO on 384-well microplate. […] 5 μL of recombinant human Lp-PLA2 enzyme (2 nM rhLp-PLA2 in assay buffer of 50 mM HEPES, pH7.4, 150 mM NaCl, 1 mM CHAPS) was added to each well of the plate with compounds. Plates were centrifuged for 10 sec at 500 rpm. […] Plates were centrifuged for 10 sec at 500 rpm. Plate was covered to protect from light and incubated for 20 min at room temperature. […] PIC50 data, curve and QC analysis was conducted by using XL fit module in Excel.

[2] = biological target: T2, Lp-PLA2 from plasma (pooled human plasma) (Homo sapiens, UniProt Q13093); assay: Lp-PLA2 human plasma assay (Thio-PAF assay); type: biochemical; settings: text thresholds, read-out: pIC50 values in the thio-PAF assay (converted)
T2 construct: 8 μL pooled human plasma; from tissue; host or cells: pooled human plasma
T2 sequence (Q13093 22-441): T1 sequence (Q13093 22-441)
From the text: (3) Lipoprotein-Associated Phospholipase A2 (Lp-PLA2) Human Plasma Assay (Also Referred to as “Thio-PAF Assay”)
The human plasma assay utilizes a thioester analog of PAF (phosphatidylcholine), where hydrolysis yields to the formation of a phospholipid containing a free thiol group. The amount of thiol is quantitated continuously by reacting with CPM (7-diethylamino-3-(4′-maleimidylphenyl)-4-methylcoumarin), a maleimide which increases in fluoresence after Michael addition of thiols. This assay may detect the activity of Lp-PLA2 from plasma, as determined by specific inhibition by Lp-PLA2 inhibitors.
The thio-PAF assay was run as a quenched 15 μL assay. Compounds source plate was prepared by making 1:3 (by volume) serial dilution of the compounds into pure DMSO on 384-well microplate. 0.01 μL of compounds on compound source plate were transferred to 384 well Greiner 784076 (black) low-volume plates by ECHO liquid dispenser. 8 μL pooled human plasma, which was previously aliquoted and frozen, was added. Plates were centrifuged for 10 sec at 500 rpm. After 30 minutes preincubation, 2 μL of substrate (2.5 mM thio-PAF, 3.2 mM NEM (N-ethylmaleimide) [made fresh daily in DMSO], and 32 μM CPM [from a DMSO stock] in assay buffer of 50 mM HEPES, pH7.4, 150 mM NaCl, 1 mM CHAPS was added to 384 well Greiner 784076 (black) low-volume plates by BRAVO liquid handling station. Plates were centrifuged for 10 sec at 500 rpm. Plate was covered to protect from light and incubated for 2 min at room temperature. Reaction was quenched with 5 μL of 5% aqueous trifluoroacetic acid (TFA). Plates were covered to protect from light and incubated for 40 min at room temperature. Plates were read at ex: 380/em: 485 using-Envision microplate reader. PIC50 data, curve and QC analysis was conducted by using XLFit module in Excel.

[3] = system: proinflammatory (M1) and anti-inflammatory (M2) markers in macrophages; assay: EAE model (MBP immunization), ex vivo realtime PCR analysis of M1 and M2 macrophage markers; type: in vivo, rats; settings: macrophages ex vivo (splenic, day 13 post MBP-immunization; CNS infiltrating cells), compound treated vs control
Method: A further study was carried out to study the impact of Lp-PLA2 inhibitors on modulating M1/M2 imbalance. In this study, rats were induced to develop experimental autoimmune encephalomyelitis (EAE) by immunization with myelin basic protein (MBP) antigen and treated with a known Lp-PLA2 inhibitor: 549-Methoxy-4-oxo-6,7-dihydro-4H-pyrimido[6,1-a]isoquinolin-2-yl)oxy)-2-(3-(trifluoromethyl)phenoxy)benzonitrile (See PCT application no. PCT/CN2011/001597) For preventive treatment, compound administration started at day 0 whereas it started at 7 day in therapeutic treatment. Rats were subsequently monitored for symptoms of EAE. Rats were immunized with MBP to develop EAE and symptoms were monitored daily. Plasma Lp-PLA2 activity and LysoPC concentration were determined at different time points through the course of EAE.
Ex vivo analysis of proinflammatory (M1) and anti-inflammatory (M2) markers in control and compound treated EAE […]. Splenic macrophages were harvested at day 13 post MBP-immunization and assayed for expression of a variety of markers by realtime PCR. CNS infiltrating cells were harvested and macrophages were analyzed for expression of M1 and M2 markers by realtime PCR.

[4] = text thresholds, upper limit for pIC50 in this assay is 9.3, read-out: pIC50 values in the PED6 assay (converted)
[5] = upper limit for pIC50 obtained in this PED6 assay is 9.3, read-out: rhLp-PLA2 (PED6 assay) (pIC50) (converted)

Structure (SMILES) | IC50 [1, 4] [nM] | IC50 [2] [nM] | IC50 [1, 5] [nM] | M1 markers (expression by realtime PCR) [3] | M2 markers (expression by realtime PCR) [3]
O=c1nc(NCCc2ccc(Oc3ccc(F)cc3)cc2)[nH]cc1Cc1cncnc1 [E188, 2-{2-[4-(4-Fluoro-phenoxy)-phenyl]-ethylamino}-5-pyrimidin-5-ylmethyl-1H-pyrimidin-4-one] | ≤ 10 | ≤ 100 |  |  | 
Cn1cc(Cc2cn(C)c(SCc3ccc(Oc4cc(Cl)ccn4)cc3)nc2=O)cn1 [E93, 2-[({4-[(4-chloro-2-pyridinyl)oxy]phenyl}methyl)thio]-1-methyl-5-[(1-methyl-1H-pyrazol-4-yl)methyl]-4(1H)-pyrimidinone] | ≤ 1 | ≤ 100 |  |  | 
N#Cc1cc(CSc2nc(=O)c(Cc3cncnc3)c[nH]2)ccc1Oc1ccc(F)c(C(F)(F)F)c1 [E87, 2-{[4-fluoro-3-(trifluoromethyl)phenyl]oxy}-5-({[4-oxo-5-(5-pyrimidinylmethyl)-1,4-dihydro-2-pyrimidinyl]thio}methyl)benzonitrile] | ≤ 1 | ≤ 1000 |  |  | 
Cc1ccc(Oc2ccc(CCOc3nc(=O)c(Cc4cncnc4)c[nH]3)cc2)cc1Cl [E150, 2-[(2-{4-[(3-chloro-4-methylphenyl)oxy]phenyl}ethyl)oxy]-5-[pyrimidin-5-ylmethyl]-4(1H)-pyrimidinone] | ≤ 1 | ≤ 100 |  |  | 
CCc1cn(CC)c(OCCc2ccc(Oc3ccc(Cl)c(C(F)(F)F)c3)cc2)nc1=O [E130, 2-{[2-(4-{[4-chloro-3-(trifluoromethyl)phenyl]oxy}phenyl)ethyl]oxy}-1,5-diethyl-4(1H)-pyrimidinone] |  | ≤ 1000 | 2.51 |  | 
COc1ncc(Cc2c[nH]c(OCCc3ccc(Oc4ccc(C)c(Cl)c4)cc3)nc2=O)cn1 [E151, 2-[(2-{4-[(3-chloro-4-methylphenyl)oxy]phenyl}ethyl)oxy]-5-{[2-(methyloxy)-5-pyrimidinyl]methyl}-4(1H)-pyrimidinone] | ≤ 1 | ≤ 100 |  |  | 
COc1ncc(Cc2cn(C)c(SCc3ccc(Oc4ccc(Cl)c(C(F)(F)F)c4)c(C#N)c3)nc2=O)cn1 [E85, 2-{[4-chloro-3-(trifluoromethyl)phenyl]oxy}-5-{[(1-methyl-5-{[2-(methyloxy)-5-pyrimidinyl]methyl}-4-oxo-1,4-dihydro-2-pyrimidinyl)thio]methyl}benzonitrile] | ≤ 1 | ≤ 100 |  |  | 
COc1ccc2c(c1)CCn1c-2cc(Oc2ccc(Oc3cccc(C(F)(F)F)c3)c(C#N)c2)nc1=O |  |  |  | decrease | increase
Cc1nnc(Cc2c[nH]c(OCCc3ccc(Oc4ccc(Cl)c(C(F)(F)F)c4)cc3)nc2=O)o1 [E134, 2-{[2-(4-{[4-chloro-3-(trifluoromethyl)phenyl]oxy}phenyl)ethyl]oxy}-5-[(5-methyl-1,3,4-oxadiazol-2-yl)methyl]-4(1H)-pyrimidinone] | ≤ 10 | ≤ 100 | 2.51 |  | 
COc1ncc(Cc2cn(C)c(SCc3ccc(Oc4ccc(F)c(C(F)(F)F)c4)c(C#N)c3)nc2=O)cn1 [E90, 2-{[4-fluoro-3-(trifluoromethyl)phenyl]oxy}-5-{[(1-methyl-5-{[2-(methyloxy)-5-pyrimidinyl]methyl}-4-oxo-1,4-dihydro-2-pyrimidinyl)thio]methyl}benzonitrile] | ≤ 1 | ≤ 100 |  |  | 

Second part, led by results:

IC50 [1, 4] [nM] | IC50 [2] [nM] | IC50 [1, 5] [nM] | Structure (SMILES) | M1 markers (expression by realtime PCR) [3] | M2 markers (expression by realtime PCR) [3]
≤ 10 | ≤ 1000 |  | COc1ncc(Cc2c[nH]c(NCCc3ccc(Oc4ccc(C(F)(F)F)c(Cl)c4)cc3)nc2=O)cn1 [E206, 2-{2-[4-(3-chloro-4-trifluoromethyl-phenoxy)-phenyl]ethylamino}-5-(2-methoxy-pyrimidin-5-ylmethyl)-1H-pyrimidin-4-one] |  | 
≤ 10 | ≤ 100 | 7.94 | COc1ncc(Cc2c[nH]c(NCCc3ccc(Oc4ccc(C(F)(F)F)cn4)c(C#N)c3)nc2=O)cn1 [E202, 5-{2-[5-(2-methoxy-pyrimidin-5-ylmethyl)-4-oxo-1,4-dihydro-pyrimidin-2-yl]-amino}-ethyl-2-(5-trifluoromethyl-pyridin-2-yloxy)benzonitrile] |  | 
≤ 10 | ≤ 1000 | 3.16 | O=c1cc(Cc2c[nH]c(NCCc3ccc(Oc4ccc(Cl)c(C(F)(F)F)c4)cc3)nc2=O)cc[nH]1 [E216, 2-{2-[4-(4-Chloro-3-trifluoromethyl-phenoxy)-phenyl]-ethylamino}-5-(2-oxo-1,2-dihydro-pyridin-4-ylmethyl)-1H-pyrimidin-4-one] |  | 
≤ 10 | ≤ 1000 |  | N#Cc1cc(CCNc2nc(=O)c(Cc3cncnc3)c[nH]2)ccc1Oc1ccc(C(F)(F)F)cn1 [E205, 5-[2-(4-oxo-5-pyrimidin-5-ylmethyl-1,4-dihydro-pyrimidin-2-ylamino)-ethyl]-2-(5-trifluoromethyl-pyridin-2-yloxy)benzonitrile] |  | 
≤ 10 | ≤ 100 | 6.31 | O=c1ccc(Cc2c[nH]c(NCCc3ccc(Oc4ccc(Cl)c(C(F)(F)F)c4)cc3)nc2=O)c[nH]1 [E212, 2-{2-[4-(4-Chloro-3-trifluoromethyl-phenoxy)-phenyl]-ethylamino}-5-(6-oxo-1,6-dihydro-pyridin-3-ylmethyl)-1H-pyrimidin-4-one] |  | 
